The values below come from ChEMBL document CHEMBL1157999, “A new epidioxy sterol as an antifouling substance from a palauan marine sponge, lendenfeldia chondrodes” (1999).

Type in all cases: functional, Mytilus edulis/galloprovincialis MCLGV-2007
Test [1] concerns Mytilus edulis. Put plainly: Antifouling activity against blue mussel assessed as responding mussel at 10 ppm by foot stimulant method.
Test [2] deals with Mytilus edulis. In words: Antifouling activity against blue mussel assessed as responding mussel at 100 ppm by foot stimulant method.
Test [3] relates to Mytilus edulis. In words: Antifouling activity against blue mussel assessed as responding mussel at 1 ppm by foot stimulant method.

For `CC(=O)C1=CC[C@H]2[C@]3(C)CC[C@H]4C(C)(C)CCC[C@]4(C(=O)O)[C@H]3CC(=O)[C@]2(C)[C@H]1C=O`, the Activity in test [1] is 100%; in test [2], 100%; in test [3], 95%.
With `CC(C)CCC[C@@H](C)[C@H]1CC[C@@H]2[C@]1(C)CC[C@H]1[C@]23C=C[C@]2(C[C@@H](O)CC[C@]12C)OO3`, the Activity in test [1], in test [2] and in test [3] was 0% throughout.
`C=C(CC[C@@H](C)[C@H]1CC[C@@H]2[C@]1(C)CC=C1[C@]23C=C[C@]2(C[C@@H](O)CC[C@]12C)OO3)C(C)C`: the Activity in test [1], in test [2] and in test [3] was 0% in each case.
As for `CC(=O)OC[C@]12CCCC(C)(C)[C@@H]1CC[C@]1(C)[C@@H]2C[C@H]2OC(=O)[C@H]3[C@H](C(C)=O)[C@@H](O)C[C@@H]1[C@]23C`, the Activity in test [1] came out at 100%; in test [2], 100%; in test [3] it was 90%.
With `CC(=O)O[C@H]1C[C@H]2[C@@](C)(CC[C@H]3C(C)(C)CCC[C@@]32C=O)[C@@H]2CC=C(C(C)=O)[C@H](C=O)[C@@]12C`, the results for the Activity in test [1], in test [2] and in test [3] were 55%, 75% and 10%, respectively.
Taken in the same sequence, the figures for `C=CC(CC[C@@H](C)[C@H]1CC[C@@H]2[C@]1(C)CC[C@H]1[C@]23C=C[C@]2(C[C@@H](O)CC[C@]12C)OO3)(OO)C(C)C` (mixture of isomers) were 20%, 95% and 0%.
